Reference: patent US9012443B2 (Amgen Inc., priority 2011, dated 2015)

How the values were obtained:
[1] = target: Nav 1.7 (Homo sapiens (Human), UniProt Q15858); assay: Nav 1.7 in vitro PX assay (PatchXpress whole cell voltage clamp); type: cell-based; conditions: 293 cells, human Nav1.7, partially inactivated state; read-out: Nav1.7 PX IC50 IP
In short: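 Partially inactivated channel state (holding potential for 20–50% inactivation) probed in human Nav1.7-transfected 293 cells by automated patch clamp, test pulse −10 mV for 20 msec.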

[2] = target: Nav 1.5 (Homo sapiens (Human), UniProt Q14524); assay: Nav 1.5 in vitro PX assay (PatchXpress whole cell voltage clamp); type: cell-based; conditions: 293 cells stably transfected with Nav 1.5; second part of table; read-out: Nav1.5 PX IC50
In short: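 HEK293 cells stably expressing Nav 1.5, whole-cell voltage clamp held at −50 mV; 20 msec test pulses to 0 mV at 0.1 Hz, each preceded by a step to −120 mV.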

Nav 1.7, sequence (Q15858 whole entry): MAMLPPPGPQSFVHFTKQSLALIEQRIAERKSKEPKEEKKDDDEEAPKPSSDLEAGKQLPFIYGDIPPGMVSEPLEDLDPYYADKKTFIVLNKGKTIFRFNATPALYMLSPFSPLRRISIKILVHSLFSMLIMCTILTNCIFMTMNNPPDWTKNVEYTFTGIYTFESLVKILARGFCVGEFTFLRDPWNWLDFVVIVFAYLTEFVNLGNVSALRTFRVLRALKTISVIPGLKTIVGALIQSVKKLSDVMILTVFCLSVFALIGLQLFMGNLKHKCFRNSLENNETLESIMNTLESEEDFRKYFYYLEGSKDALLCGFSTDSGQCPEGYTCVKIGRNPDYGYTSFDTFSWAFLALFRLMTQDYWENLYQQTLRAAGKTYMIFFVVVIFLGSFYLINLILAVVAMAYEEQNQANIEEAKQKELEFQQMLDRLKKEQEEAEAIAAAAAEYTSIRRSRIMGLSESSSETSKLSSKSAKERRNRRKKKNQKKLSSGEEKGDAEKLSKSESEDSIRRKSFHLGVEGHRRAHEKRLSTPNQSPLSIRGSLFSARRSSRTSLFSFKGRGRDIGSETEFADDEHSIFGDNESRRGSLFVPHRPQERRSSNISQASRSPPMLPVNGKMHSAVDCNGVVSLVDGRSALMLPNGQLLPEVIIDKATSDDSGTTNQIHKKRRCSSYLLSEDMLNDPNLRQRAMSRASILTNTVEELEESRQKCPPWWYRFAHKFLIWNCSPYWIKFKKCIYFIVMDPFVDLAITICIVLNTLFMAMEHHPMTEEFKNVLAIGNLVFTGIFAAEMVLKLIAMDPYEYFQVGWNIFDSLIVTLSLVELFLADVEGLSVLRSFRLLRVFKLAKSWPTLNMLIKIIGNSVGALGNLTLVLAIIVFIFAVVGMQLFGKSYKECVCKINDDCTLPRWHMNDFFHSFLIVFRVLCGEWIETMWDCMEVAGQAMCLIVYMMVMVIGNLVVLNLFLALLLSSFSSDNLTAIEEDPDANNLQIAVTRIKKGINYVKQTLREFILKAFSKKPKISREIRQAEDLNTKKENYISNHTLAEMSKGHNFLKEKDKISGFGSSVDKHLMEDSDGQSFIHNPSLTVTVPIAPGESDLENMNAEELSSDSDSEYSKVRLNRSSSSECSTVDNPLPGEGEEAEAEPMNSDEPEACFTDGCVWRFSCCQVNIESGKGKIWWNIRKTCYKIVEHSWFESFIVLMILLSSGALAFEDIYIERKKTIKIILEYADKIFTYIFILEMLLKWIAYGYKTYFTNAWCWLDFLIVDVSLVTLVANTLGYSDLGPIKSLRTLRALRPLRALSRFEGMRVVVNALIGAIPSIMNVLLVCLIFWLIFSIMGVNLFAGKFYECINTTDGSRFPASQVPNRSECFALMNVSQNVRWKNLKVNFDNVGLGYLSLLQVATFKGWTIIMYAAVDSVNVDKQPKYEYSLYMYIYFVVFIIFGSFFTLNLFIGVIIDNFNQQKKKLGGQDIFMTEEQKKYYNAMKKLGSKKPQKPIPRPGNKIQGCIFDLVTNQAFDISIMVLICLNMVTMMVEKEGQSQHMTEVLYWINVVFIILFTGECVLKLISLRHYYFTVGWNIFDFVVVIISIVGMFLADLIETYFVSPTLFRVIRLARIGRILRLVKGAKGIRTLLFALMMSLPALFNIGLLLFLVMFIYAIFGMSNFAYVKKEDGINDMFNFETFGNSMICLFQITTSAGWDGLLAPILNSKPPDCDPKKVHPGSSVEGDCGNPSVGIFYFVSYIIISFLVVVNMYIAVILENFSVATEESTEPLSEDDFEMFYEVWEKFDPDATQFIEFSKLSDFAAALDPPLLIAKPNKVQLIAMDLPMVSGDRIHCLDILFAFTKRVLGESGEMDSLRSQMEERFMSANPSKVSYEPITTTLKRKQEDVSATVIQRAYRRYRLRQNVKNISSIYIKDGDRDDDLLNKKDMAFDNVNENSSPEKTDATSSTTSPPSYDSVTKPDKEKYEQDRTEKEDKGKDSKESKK
Nav 1.5, sequence (Q14524 whole entry): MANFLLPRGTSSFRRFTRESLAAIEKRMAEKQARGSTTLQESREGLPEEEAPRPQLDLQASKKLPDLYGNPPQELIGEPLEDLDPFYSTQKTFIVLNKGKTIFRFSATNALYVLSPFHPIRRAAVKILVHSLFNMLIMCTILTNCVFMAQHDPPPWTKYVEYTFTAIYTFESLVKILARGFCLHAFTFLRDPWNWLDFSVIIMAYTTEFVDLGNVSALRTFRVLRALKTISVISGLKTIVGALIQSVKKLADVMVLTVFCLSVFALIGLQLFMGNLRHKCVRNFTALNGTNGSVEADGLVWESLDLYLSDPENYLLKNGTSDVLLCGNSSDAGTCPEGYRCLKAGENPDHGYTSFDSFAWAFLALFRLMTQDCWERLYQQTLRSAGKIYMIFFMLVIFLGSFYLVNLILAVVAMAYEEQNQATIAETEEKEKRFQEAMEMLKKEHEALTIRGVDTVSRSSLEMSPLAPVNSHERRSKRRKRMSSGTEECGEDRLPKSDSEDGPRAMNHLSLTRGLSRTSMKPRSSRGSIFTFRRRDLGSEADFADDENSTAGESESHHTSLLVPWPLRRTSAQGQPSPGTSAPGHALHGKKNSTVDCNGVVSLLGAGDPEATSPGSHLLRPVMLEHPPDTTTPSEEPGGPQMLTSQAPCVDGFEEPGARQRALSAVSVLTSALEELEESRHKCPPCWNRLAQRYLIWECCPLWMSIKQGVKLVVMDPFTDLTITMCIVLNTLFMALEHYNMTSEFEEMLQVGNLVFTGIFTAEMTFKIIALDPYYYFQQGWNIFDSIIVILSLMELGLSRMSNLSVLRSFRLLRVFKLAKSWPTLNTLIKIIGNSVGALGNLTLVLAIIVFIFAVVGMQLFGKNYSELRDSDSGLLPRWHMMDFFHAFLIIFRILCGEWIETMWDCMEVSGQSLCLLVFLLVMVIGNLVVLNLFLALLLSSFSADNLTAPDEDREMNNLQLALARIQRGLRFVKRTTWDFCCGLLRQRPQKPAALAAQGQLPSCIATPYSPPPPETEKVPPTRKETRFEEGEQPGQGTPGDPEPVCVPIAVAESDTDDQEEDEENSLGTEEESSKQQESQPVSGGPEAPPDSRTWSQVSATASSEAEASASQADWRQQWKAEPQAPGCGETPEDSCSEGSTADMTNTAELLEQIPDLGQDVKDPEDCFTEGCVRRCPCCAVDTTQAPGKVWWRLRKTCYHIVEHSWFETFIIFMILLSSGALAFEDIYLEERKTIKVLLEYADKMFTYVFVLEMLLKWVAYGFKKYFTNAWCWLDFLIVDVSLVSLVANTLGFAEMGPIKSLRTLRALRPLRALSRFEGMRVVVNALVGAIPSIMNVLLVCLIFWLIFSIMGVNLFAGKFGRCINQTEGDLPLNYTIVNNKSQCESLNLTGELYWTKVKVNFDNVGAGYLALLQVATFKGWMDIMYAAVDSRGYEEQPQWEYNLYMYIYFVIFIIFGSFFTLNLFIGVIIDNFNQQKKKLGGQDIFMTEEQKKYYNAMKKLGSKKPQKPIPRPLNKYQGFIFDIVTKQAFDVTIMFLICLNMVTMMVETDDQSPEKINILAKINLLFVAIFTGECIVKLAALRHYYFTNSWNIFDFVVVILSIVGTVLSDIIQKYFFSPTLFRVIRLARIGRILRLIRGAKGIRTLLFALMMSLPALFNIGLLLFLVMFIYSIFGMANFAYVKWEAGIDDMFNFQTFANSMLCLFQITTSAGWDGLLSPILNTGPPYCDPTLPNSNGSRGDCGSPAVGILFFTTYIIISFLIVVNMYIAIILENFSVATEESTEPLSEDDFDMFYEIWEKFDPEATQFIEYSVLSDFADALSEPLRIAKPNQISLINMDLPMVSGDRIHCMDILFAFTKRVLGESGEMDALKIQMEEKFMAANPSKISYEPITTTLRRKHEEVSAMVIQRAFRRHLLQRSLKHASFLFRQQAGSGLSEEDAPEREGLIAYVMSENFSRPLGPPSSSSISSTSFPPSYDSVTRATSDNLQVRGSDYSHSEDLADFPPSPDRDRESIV

Structure (SMILES)	IC50 [1] [nM]	IC50 [2] [nM]
COc1cc(-c2cccc(F)c2)ccc1-c1ncnc2cc(S(=O)(=O)Nc3ccncn3)ccc12 [Example 527, 4-(3′-FLUORO-3-METHOXY-[1,1′-BIPHENYL]-4-YL)-N-(PYRIMIDIN-4-YL)QUINAZOLINE-7-SULFONAMIDE]	252	> 30000
COc1ccccc1-c1ccc(-c2nccc3cc(S(=O)(=O)Nc4ccncn4)ccc23)c(OC)c1 [Example 466, 1-(2′,3-DIMETHOXY-[1,1′-BIPHENYL]-4-YL)-N-(PYRIMIDIN-4-YL)ISOQUINOLINE-6-SULFONAMIDE]	227	> 30000
COc1cc(-c2c(F)cccc2F)ccc1-c1nccc2cc(S(=O)(=O)Nc3ccncn3)ccc12 [Example 447, 1-(2′,6′-DIFLUORO-3-METHOXY-[1,1′-BIPHENYL]-4-YL)-N-(PYRIMIDIN-4-YL)ISOQUINOLINE-6-SULFONAMIDE]	237	> 30000
COc1cc(-c2ccc(F)c(C#N)c2)ccc1-c1nccc2cc(S(=O)(=O)Nc3ccncn3)ccc12 [Example 486, 1-(3′-CYANO-4′-FLUORO-3-METHOXY-[1,1′-BIPHENYL]-4-YL)-N-(PYRIMIDIN-4-YL)ISOQUINOLINE-6-SULFONAMIDE]	338	> 30000
COc1cc(-c2ccc(F)c(F)c2)ccc1-c1ncnc2cc(S(=O)(=O)Nc3nncs3)ccc12 [Example 530, 4-(3′,4′-DIFLUORO-3-METHOXY-[1,1′-BIPHENYL]-4-YL)-N-(1,3,4-THIADIAZOL-2-YL)QUINAZOLINE-7-SULFONAMIDE]	233	> 30000
COc1cc(C(F)(F)F)ccc1-c1ccnc2cc(S(=O)(=O)Nc3nccs3)c(C)cc12 [Example 326, 4-(2-METHOXY-4-(TRIFLUOROMETHYL)PHENYL)-6-METHYL-N-(THIAZOL-2-YL)QUINOLINE-7-SULFONAMIDE]	660	2500
COc1cc(C(F)(F)F)ccc1-c1nc(C)nc2cc(S(=O)(=O)Nc3nccs3)ccc12 [Example 510, 4-(2-METHOXY-4-(TRIFLUOROMETHYL)PHENYL)-2-METHYL-N-(THIAZOL-2-YL)QUINAZOLINE-7-SULFONAMIDE]	464	> 30000
COc1cc(C(F)F)ccc1-c1nc(C)nc2cc(S(=O)(=O)Nc3nccs3)ccc12 [Example 515, 4-(4-(difluoromethyl)-2-methoxyphenyl)-2-methyl-N-(thiazol-2-yl)quinazoline-7-sulfonamide]	478	> 30000
Cc1cc(Cl)ccc1-c1ccnc2cc(S(=O)(=O)Nc3ncns3)ccc12 [Example 322]	333	> 30000
COc1cc(-c2ccc(C)cc2)ccc1-c1nccc2cc(S(=O)(=O)Nc3ccncn3)ccc12 [Example 443, 1-(3-METHOXY-4′-METHYL-[1,1′-BIPHENYL]-4-YL)-N-(PYRIMIDIN-4-YL)ISOQUINOLINE-6-SULFONAMIDE]	280	> 30000
COc1ccc(Cl)cc1-c1n[nH]c(=O)c2cc(S(=O)(=O)Nc3ncns3)ccc12 [Example 505, 1-(5-CHLORO-2-METHOXYPHENYL)-4-OXO-N-(1,2,4-THIADIAZOL-5-YL)-3,4-DIHYDROPHTHALAZINE-6-SULFONAMIDE]	258	> 30000
N#CCOc1ccccc1-c1nccc2cc(S(=O)(=O)Nc3nccs3)ccc12 [Example 375, 1-(2-(CYANOMETHOXY)PHENYL)-N-(THIAZOL-2-YL)ISOQUINOLINE-6-SULFONAMIDE 2,2,2-TRIFLUOROACETATE]	544	> 30000
COc1ccccc1-c1ncc(F)c2cc(S(=O)(=O)Nc3ncns3)ccc12 [Example 393, 4-FLUORO-1-(2-METHOXYPHENYL)-N-(1,2,4-THIADIAZOL-5-YL)ISOQUINOLINE-6-SULFONAMIDE]	304	> 30000
Cc1cc(Cl)ccc1-c1ncnc2cc(S(=O)(=O)Nc3ncns3)ccc12 [Example 532]	996	> 30000
COc1cc(C(F)F)c(OC)cc1-c1nccc2cc(S(=O)(=O)Nc3nccs3)ccc12 [Example 452, 1-(4-(DIFLUOROMETHYL)-2,5-DIMETHOXYPHENYL)-N-(THIAZOL-2-YL)ISOQUINOLINE-6-SULFONAMIDE]	284	> 30000
COc1ccccc1-c1cncc2cc(S(=O)(=O)Nc3nccs3)ccc12 [Example 289, 4-(2-methoxyphenyl)-N-(thiazol-2-yl)isoquinoline-7-sulfonamide]	340	> 30000
COc1cc(C(F)(F)F)ccc1-c1nccc2cc(S(=O)(=O)Nc3cscn3)ccc12 [Example 497, 1-(2-METHOXY-4-(TRIFLUOROMETHYL)PHENYL)-N-(THIAZOL-4-YL)ISOQUINOLINE-6-SULFONAMIDE]	786	> 30000
COc1cc(OCC(C)C)ccc1-c1nccc2cc(S(=O)(=O)Nc3ccncn3)ccc12 [Example 361, 1-(4-ISOBUTOXY-2-METHOXYPHENYL)-N-(PYRIMIDIN-4-YL)ISOQUINOLINE-6-SULFONAMIDE]	463	> 30000
COc1cc(CC(C)(C)C)ccc1-c1nccc2cc(S(=O)(=O)Nc3ccncn3)ccc12 [Example 360, 1-(2-METHOXY-4-NEOPENTYLPHENYL)-N-(PYRIMIDIN-4-YL)ISOQUINOLINE-6-SULFONAMIDE]	513	> 30000

These reach a lower IC50 [1]. Values come first.

IC50 [1] [nM]	Structure (SMILES)	IC50 [2] [nM]
48	COc1cc(-c2cc(F)cc(F)c2)ccc1-c1nccc2cc(S(=O)(=O)Nc3nncs3)ccc12 [Example 355, 1-(3′,5′-DIFLUORO-3-METHOXY-[1,1′-BIPHENYL]-4-YL)-N-(1,3,4-THIADIAZOL-2-YL)ISOQUINOLINE-6-SULFONAMIDE 2,2,2-TRIFLUOROACETATE]	> 30000
65	COc1cc(-c2cccc(F)c2)c(Cl)cc1-c1ncnc2cc(S(=O)(=O)Nc3ccncn3)ccc12 [Example 523, 4-(2-CHLORO-3′-FLUORO-5-METHOXY-[1,1′-BIPHENYL]-4-YL)-N-(PYRIMIDIN-4-YL)QUINAZOLINE-7-SULFONAMIDE]	6590
102	COc1ccc(-c2cccc(F)c2)cc1-c1nccc2cc(S(=O)(=O)Nc3ccncn3)ccc12 [Example 348, 1-(3′-FLUORO-4-METHOXY-[1,1′-BIPHENYL]-3-YL)-N-(PYRIMIDIN-4-YL)ISOQUINOLINE-6-SULFONAMIDE]	> 30000
75	COc1cc(-c2cccc(F)c2)c(Cl)cc1-c1nccc2cc(S(=O)(=O)Nc3ccncn3)ccc12 [Example 333, 1-(2-CHLORO-3′-FLUORO-5-METHOXY-[1,1′-BIPHENYL]-4-YL)-N-(PYRIMIDIN-4-YL)ISOQUINOLINE-6-SULFONAMIDE]	20300
75	COc1ccc(-c2cccc(F)c2)cc1-c1nccc2cc(S(=O)(=O)Nc3nncs3)ccc12 [Example 345, 1-(3′-FLUORO-4-METHOXY-[1,1′-BIPHENYL]-3-YL)-N-(1,3,4-THIADIAZOL-2-YL)ISOQUINOLINE-6-SULFONAMIDE]	> 30000
40	COc1ccc(-c2cccc(F)c2)cc1-c1nccc2cc(S(=O)(=O)Nc3ncns3)ccc12 [Example 347, 1-(3′-FLUORO-4-METHOXY-[1,1′-BIPHENYL]-3-YL)-N-(1,2,4-THIADIAZOL-5-YL)ISOQUINOLINE-6-SULFONAMIDE]	> 30000
204	COc1cccc(-c2ccc(-c3nccc4cc(S(=O)(=O)Nc5ccncn5)ccc34)c(OC)c2)c1 [Example 467, 1-(3,3′-DIMETHOXY-[1,1′-BIPHENYL]-4-YL)-N-(PYRIMIDIN-4-YL)ISOQUINOLINE-6-SULFONAMIDE]	> 30000
41	COc1cc(-c2ccc(F)c(F)c2)c(F)cc1-c1nccc2cc(S(=O)(=O)Nc3nncs3)ccc12 [Example 365, N-(1,3,4-THIADIAZOL-2-YL)-1-(2,3′,4′-TRIFLUORO-5-METHOXY-[1,1′-BIPHENYL]-4-YL)ISOQUINOLINE-6-SULFONAMIDE]	> 30000
56	COc1cc(-c2ccc(C)c(F)c2)ccc1-c1nccc2cc(S(=O)(=O)Nc3ccncn3)ccc12 [Example 471, 1-(3′-FLUORO-3-METHOXY-4′-METHYL-[1,1′-BIPHENYL]-4-YL)-N-(PYRIMIDIN-4-YL)ISOQUINOLINE-6-SULFONAMIDE]	> 30000
48	COc1cc(-c2cccc(F)c2)c(F)cc1-c1nccc2cc(S(=O)(=O)Nc3nncs3)ccc12 [Example 366, 1-(2,3′-DIFLUORO-5-METHOXY-[1,1′-BIPHENYL]-4-YL)-N-(1,3,4-THIADIAZOL-2-YL)ISOQUINOLINE-6-SULFONAMIDE]	> 30000
58	COc1cc(-c2cccc(F)c2)ccc1-c1nccc2cc(S(=O)(=O)Nc3ncns3)ccc12 [Example 369, 1-(3′-FLUORO-3-METHOXY-[1,1′-BIPHENYL]-4-YL)-N-(1,2,4-THIADIAZOL-5-YL)ISOQUINOLINE-6-SULFONAMIDE]	> 30000
170	COc1cc(-c2ccc(C)c(C)c2)ccc1-c1nccc2cc(S(=O)(=O)Nc3ccncn3)ccc12 [Example 469]	> 30000
69	COc1cc(-c2ccc(Cl)c(F)c2)ccc1-c1nccc2cc(S(=O)(=O)Nc3ccncn3)ccc12 [Example 492, 1-(4′-CHLORO-3′-FLUORO-3-METHOXY-[1,1′-BIPHENYL]-4-YL)-N-(PYRIMIDIN-4-YL)ISOQUINOLINE-6-SULFONAMIDE]	> 30000
58	COc1cc(-c2cccc(F)c2)ccc1-c1ncnc2cc(S(=O)(=O)Nc3ncns3)ccc12 [Example 525, 4-(3′-FLUORO-3-METHOXY-[1,1′-BIPHENYL]-4-YL)-N-(1,2,4-THIADIAZOL-5-YL)QUINAZOLINE-7-SULFONAMIDE]	> 30000
76	COc1cc(-c2cccc(C(F)(F)F)c2)ccc1-c1nccc2cc(S(=O)(=O)Nc3ccncn3)ccc12 [Example 351, 1-(3-METHOXY-3′-(TRIFLUOROMETHYL)-[1,1′-BIPHENYL]-4-YL)-N-(PYRIMIDIN-4-YL)ISOQUINOLINE-6-SULFONAMIDE]	26600
